Assay results as given in ChEMBL document CHEMBL1146439, “Novel mono-tetrahydrofuran ring acetogenins, from the bark of Annona squamosa, showing cytotoxic selectivities for the human pancreatic carcinoma cell line, PACA-2” (J Nat Prod, 1997).
≈ marks a conversion by molar mass, not a printed value.

Experiments:
[1] = Toxicity against brine shrimp; assay type: organism-based; conditions: artemia, in vivo
A549 = experiment: Cytotoxicity against human A549 cells after 7 days by MTT assay; assay type: functional; conditions: A549, 168 h, read-out: ED50 (the source's name)
MCF7 = experiment: Cytotoxicity against human MCF7 cells after 7 days by MTT assay; assay type: functional; conditions: MCF7, 168 h, read-out: ED50 (the source's name)
HT-29 = experiment: Cytotoxicity against human HT-29 cells after 7 days by MTT assay; assay type: functional; conditions: HT-29, 168 h, read-out: ED50 (the source's name)
A498 = experiment: Cytotoxicity against human A498 cells after 7 days by MTT assay; assay type: functional; conditions: A498, 168 h, read-out: ED50 (the source's name)
PC-3 = experiment: Cytotoxicity against human PC3 cells after 7 days by MTT assay; assay type: functional; conditions: PC-3, 168 h, read-out: ED50 (the source's name)
MIA PaCa-2 = experiment: Cytotoxicity against human MIAPaCa2 cells after 7 days by MTT assay; assay type: functional; conditions: for EC50: Homo sapiens, MIA PaCa-2, 168 h, read-out: ED50 (the source's name)

| SMILES | LC50 [1] [µg/mL] | EC50 (A549) [µg/mL] | EC50 (MCF7) [µg/mL] | EC50 (HT-29) [µg/mL] | EC50 (A498) [µg/mL] | EC50 (PC-3) [µg/mL] | ED50 (MIA PaCa-2) [×10⁻⁴ ug/ml] | EC50 (MIA PaCa-2) [µg/mL] |
| --- | --- | --- | --- | --- | --- | --- | --- | --- |
| CCCCCCCCCCCC[C@@H](O)[C@H]1CC[C@H]([C@H](O)CCCCCC(=O)CCCC[C@@H](O)CC2=C[C@H](C)OC2=O)O1 | 0.41 (≈ 0.689 µM) | 0.27 (≈ 0.454 µM) | > 1 | > 1 | > 1 | 0.0096 (≈ 0.0161 µM) | 2.4 |  |
| CCCCCCCCC/C=C\CC[C@@H](O)[C@H]1CC[C@H]([C@H](O)CCCCCC(=O)CCCC[C@@H]2CC(CC(C)=O)C(=O)O2)O1 (mixture of isomers) | 0.44 | > 1 | > 1 | > 1 | > 1 | 0.032 |  | 0.0022 |
| COc1cccc2c1C(=O)c1c(O)c3c(c(O)c1C2=O)C[C@@](O)(C(=O)CO)C[C@@H]3O[C@H]1C[C@H](N)[C@H](O)[C@H](C)O1 [DOXORUBICIN] | 0.26 (≈ 0.478 µM) | 0.0053 (≈ 0.00975 µM) | 0.2 (≈ 0.368 µM) | 0.02 (≈ 0.0368 µM) | 0.01 (≈ 0.0184 µM) | 0.032 (≈ 0.0589 µM) |  | 0.018 (≈ 0.0331 µM) |
| CCCCCCCCCCCC[C@H](O)[C@H]1CC[C@H]([C@H](O)CCCCCC(=O)CCCC[C@@H](O)CC2=C[C@H](C)OC2=O)O1 [MOSIN B] | 0.29 (≈ 0.487 µM) | 0.94 (≈ 1.58 µM) | > 1 | > 1 | > 1 | 0.35 (≈ 0.588 µM) | 2.5 |  |
| CCCCCCCCCCCC[C@H](O)[C@@H]1CC[C@H]([C@H](O)CCCCCC(=O)CCCC[C@@H](O)CC2=C[C@H](C)OC2=O)O1 [MOSIN C] | 0.15 (≈ 0.252 µM) | 0.6 (≈ 1.01 µM) | > 1 | > 1 | > 1 | > 1 | 1.2 |  |
